Test results as given in patent US20230000943A1, “METHOD OF INDUCING SYNAPTOGENESIS BY ADMINISTERING ANGIOTENSIN AND ANALOGUES THEREOF” (Synaptogenix, Inc., priority 2021, published 2023).
Like-named read-outs stand apart in the source and are kept apart here. One block for each compound: values may come before it.

Assays:
PKC [1] = conditions: cited from earlier work
PKC [2] = conditions: competes with [3H] phorbol dibutyrate; read-out: Ki for binding to PKC; cited from earlier work
[3] = system: squamous cell carcinoma and melanoma; conditions: used topically; cited from earlier work
NCI 60 cell line = NCI 60 cell line screen; cited from earlier work
protein kinase C = conditions: specifically the (−)-enantiomer; read-out: potency (EC50); cited from earlier work
PSD-95 = assay: Mouse dosing study: PSD-95 levels; format: in vivo, mice; conditions: 25 μg/m^2 i.v. once per week, after three weeks
Description: (§1) Mouse studies may be performed using an angiotensin, as described above, in accordance with the protocol described below. The following metrics may be used to evaluate dosing regimens: induction of brain postsynaptic anchoring protein PSD-95, upregulation of BDNF levels in brain, upregulation of HGF levels in brain, minimal downregulation of PKC-ε levels, and elevation of brain and plasma concentrations of the angiotensin. Groups of 2-3 mice may be formed and housed in an approved research animal facility. Water may be given ad libitum. A first study involves three groups of mice with animals in each group dosed weekly for 1, 2, 3, or 6 consecutive weeks. Each group has its own control group containing the same number of mice. For example, mice in the first, second and third groups may receive an intravenous (i.v.) injection of 10 μg/m^2, 15 μg/m^2, and 25 μg/m^2 dose of an angiotensin. For each dose, mice in that group may receive a single injection of the angiotensin weekly for a predetermined number of consecutive weeks. Following dosing, mice are sacrificed, and the blood and brain of each animal is collected for further analysis.

[4] = parameters: species or system mice; conditions: mouse, in vivo, iv
Description: as §1

BDNF = assay: Mouse dosing study: brain BDNF levels; format: in vivo; conditions: mice
Description: as §1

[5] = A-ring bryologs, read-out: affinity for PKC

Compound: CCCCCCCC(=O)O[C@H]1/C(=C/C(=O)OC)CC2C[C@H](CO)OC(=O)C[C@H](O)C[C@@H]3CCC[C@H](C[C@@H]4CCO[C@H](/C=C/C(C)(C)[C@]1(O)O2)O4)O3 [Analog 1]
Ki (PKC [1]; Table 1 Bryologs, read-out: PKC Affin): 0.25 nM
affinity for PKC (in words) (PKC [1]; compared with Bryostatin-1 and the other bryologs): highest affinity for PKC

Compound: CC1=C[C@]23C(=O)[C@@H](C=C(COC(=O)c4ccccc4)[C@@H](O)[C@]2(O)[C@H]1OC(=O)c1ccccc1)[C@H]1[C@@H](C[C@H]3C)C1(C)C [Ingenol 3,20-dibenzoate]
Ki (PKC [2]): 240 nM

Compound: C/C=C(/C)C(=O)O[C@H]1C(C)=C[C@]23C(=O)[C@@H](C=C(CO)[C@@H](O)[C@]12O)[C@H]1[C@@H](C[C@H]3C)C1(C)C [Ingenol-3-angelate]
antitumor activity [3]: exhibits antitumor activity

Compound: CC1=CC[C@H](C)C(C)(C)[C@@H]1/C=C/C(C)=C/CC[C@@]1(CO)[C@H](CCCO)/C(=C(/C)C=O)CC[C@]1(C)O [Iripallidal]
GI50 (concentration required to inhibit growth by 50%) (NCI 60 cell line): micromolar to nanomolar range

Compound: CCCCCCCC(=O)OC1C(=CC(=O)OC)CC2CC(CO)OC(=O)CC(O)CCOC(C(C)(C)C)CC3CCOC(C=CC(C)(C)C1(O)O2)O3 (stereo not shown) [bryolog 3]
Ki (PKC [1]; [5]): 6.5 nM

Compound: CCCCCCCC(=O)OC1C(=CC(=O)OC)CC2CC(CO)OC(=O)CC(O)CCOC(c3ccccc3)CC3CCOC(C=CC(C)(C)C1(O)O2)O3 (stereo not shown) [bryolog 4]
Ki (PKC [1]; [5]): 2.3 nM

Compound: CCCCCCCC(=O)OC1C(=CC(=O)OC)CC2CC(CO)OC(=O)CC(O)CCOC(CCCc3ccc(Br)cc3)CC3CCOC(C=CC(C)(C)C1(O)O2)O3 (stereo not shown) [bryolog 5]
Ki (PKC [1]; [5]): 1.9 nM

Compound: CCCCCCCCc1ccc2c3c(c[nH]c13)C[C@@H](CO)NC(=O)[C@H](C(C)C)N2C [octylindolactam V, Octylindolactam V]
EC50 (protein kinase C): 29 nM

concentration in brain relative to plasma [4]: less than its concentration in plasma
crossing of the blood-brain-barrier [4]: crosses the BBB
Compound: angiotensin
PSD-95 in brain and blood samples (PSD-95): higher amounts of PSD-95
brain BDNF levels (BDNF; 15 μg/m^2 for three consecutive weeks): some increase
brain BDNF levels (BDNF; 25 μg/m^2): maximum increase
brain BDNF levels (BDNF; 25 μg/m^2, 3 on/3 off/3 on regimen): remain elevated
brain BDNF levels (BDNF; after three consecutive weekly doses at 25 μg/m^2): highest level
